What all share (assay type): functional
Holding throughout (details): read-out: GI

Experiment [1] deals with Fusarium graminearum. As to the kind of experiment: Fungicidal activity against Fusarium graminearum assessed as growth inhibition at 50 ug/mL.
In experiment [2] the test system is Botryosphaeria berengeriana. Briefly: Fungicidal activity against Botryosphaeria berengeriana assessed as growth inhibition at 50 ug/mL.
Experiment [3] has as its system Fusarium oxysporum. Briefly: Fungicidal activity against Fusarium oxysporum assessed as growth inhibition at 50 ug/mL.
Experiment [4] has as its system Alternaria solani. As to the kind of experiment: Fungicidal activity against Alternaria solani assessed as growth inhibition at 50 ug/mL.
The subject of experiment [5] is Mycosphaerella arachidis. As to the kind of experiment: Fungicidal activity against Mycosphaerella arachidis assessed as growth inhibition at 50 ug/mL.
Experiment [6] deals with Fusarium oxysporum. As to the kind of experiment: Fungicidal activity against Fusarium oxysporum assessed as growth inhibition at 1 ug/mL.
Experiment [7] has as its system Botryosphaeria berengeriana. As to the kind of experiment: Fungicidal activity against Botryosphaeria berengeriana assessed as growth inhibition at 1 ug/mL.
Experiment [8] deals with Fusarium graminearum. Briefly: Fungicidal activity against Fusarium graminearum assessed as growth inhibition at 1 ug/mL.
Experiment [9] relates to Mycosphaerella arachidis. As to the kind of experiment: Fungicidal activity against Mycosphaerella arachidis assessed as growth inhibition at 1 ug/mL.
Experiment [10] has as its system Alternaria solani. As to the kind of experiment: Fungicidal activity against Alternaria solani assessed as growth inhibition at 1 ug/mL.

For `CCNCC(O)(Cn1cncn1)c1ccc(Oc2ccc(Cl)cc2)cc1Cl` (stereo not given), the inhibition of growth at 50 µg/mL amounted to 56.8% with Fusarium graminearum [1]; 75.4% in experiment [2]; 86.9% with Fusarium oxysporum [3]; 63.8% in the experiment with Alternaria solani [4]; 61.4% in the experiment on Mycosphaerella arachidis [5].
Regarding `CNCC(O)(Cn1cncn1)c1ccc(Oc2ccc(Cl)cc2)cc1Cl` (stereo not given), the inhibition of growth at 1 µg/mL stood at 0% with Fusarium oxysporum [6]; 96% in [7]; 72.5% in the experiment with Fusarium graminearum [8]; 57.2% in the experiment with Mycosphaerella arachidis [9]; 50.3% with Alternaria solani [10]. Besides, the inhibition of growth at 50 µg/mL was 98% with Fusarium graminearum [1]; 100% in experiment [2]; 100% with Fusarium oxysporum [3]; 99% in the experiment on Alternaria solani [4]; 99% with Mycosphaerella arachidis [5].
Consider `COCC(O)(Cn1cncn1)c1ccc(Oc2ccc(Cl)cc2)cc1Cl` (stereo not given), for which the inhibition of growth at 1 µg/mL with Fusarium oxysporum [6] stood at 89.9%; in experiment [7] it was 99.2%; in the experiment with Fusarium graminearum [8] it was 63.2%; in the experiment with Mycosphaerella arachidis [9] it was 78.6%; in the experiment with Alternaria solani [10], 98.7%. Moreover, the inhibition of growth at 50 µg/mL in the experiment on Fusarium graminearum [1] is 98.7%; in experiment [2], 100%; with Fusarium oxysporum [3], 100%; with Alternaria solani [4], 100%; in the experiment on Mycosphaerella arachidis [5], 99.1%.
For the compound `OC(CNC1CCCCC1)(Cn1cncn1)c1ccc(Oc2ccc(Cl)cc2)cc1Cl` (stereo not given), the inhibition of growth at 50 µg/mL with Fusarium graminearum [1] was 47.5%; in [2], 100%; with Fusarium oxysporum [3] it was 78.9%; with Alternaria solani [4], 87.3%; in the experiment with Mycosphaerella arachidis [5], 75.2%.
For `CSCC(O)(Cn1cncn1)c1ccc(Oc2ccc(Cl)cc2)cc1Cl` (stereo not given), in that order: 37.2%, 100%, 78.9%, 83.7% and 82.4%.
For `OCCNCC(O)(Cn1cncn1)c1ccc(Oc2ccc(Cl)cc2)cc1Cl` (stereo not given), in that order: 37.3%, 97.7%, 100%, 98.5% and 72.2%.
As to `CONCC(O)(Cn1cncn1)c1ccc(Oc2ccc(Cl)cc2)cc1Cl` (stereo not given), the inhibition of growth at 1 µg/mL in the experiment with Fusarium oxysporum [6] was determined as 0%; in [7] it was 84.2%; with Fusarium graminearum [8], 18.2%; with Mycosphaerella arachidis [9], 55.3%; in the experiment on Alternaria solani [10], 61.3%. Besides, the inhibition of growth at 50 µg/mL with Fusarium graminearum [1] worked out at 97.3%; in experiment [2], 100%; in the experiment with Fusarium oxysporum [3], 100%; in the experiment with Alternaria solani [4], 100%; in the experiment on Mycosphaerella arachidis [5] it was 98.4%.
With `COCC(O)(Cn1cncn1)c1ccc(Oc2ccc(F)cc2)cc1Cl` (stereo not given), the inhibition of growth at 1 µg/mL with Fusarium oxysporum [6] is 82.7%; in experiment [7], 89.5%; in the experiment on Fusarium graminearum [8], 57.2%; with Mycosphaerella arachidis [9], 76.2%; in the experiment with Alternaria solani [10] it was 96.9%. Besides, the inhibition of growth at 50 µg/mL (in the experiment on Fusarium graminearum [1]; in [2]; in the experiment with Fusarium oxysporum [3]; in the experiment with Alternaria solani [4]; with Mycosphaerella arachidis [5]) was 100% throughout.
With `CNCC(O)(Cn1cncn1)c1ccc(Oc2ccc(F)cc2)cc1Cl` (stereo not given), the inhibition of growth at 1 µg/mL was determined as 68.7% in the experiment with Fusarium oxysporum [6]; 74.6% in [7]; 67.2% in the experiment with Fusarium graminearum [8]; 72.1% in the experiment with Mycosphaerella arachidis [9]; 86.7% with Alternaria solani [10]. In addition, the inhibition of growth at 50 µg/mL (with Fusarium graminearum [1]; in experiment [2]; in the experiment with Fusarium oxysporum [3]; with Alternaria solani [4]; in the experiment on Mycosphaerella arachidis [5]) was 100% each time.
In the case of `OC(Cn1ccnc1)(Cn1cncn1)c1ccc(Oc2ccc(F)cc2)cc1Cl` (stereo not given), the inhibition of growth at 50 µg/mL in the experiment on Fusarium graminearum [1] was 84.3%; in [2], 87.9%; in the experiment on Fusarium oxysporum [3], 57.1%; with Alternaria solani [4], 73.2%; in the experiment on Mycosphaerella arachidis [5], 100%.
Consider `OC(Cn1cncn1)(Cn1cncn1)c1ccc(Oc2ccc(F)cc2)cc1Cl`, for which the inhibition of growth at 1 µg/mL in the experiment on Fusarium oxysporum [6] was determined as 90%; in [7], 49.3%; in the experiment on Fusarium graminearum [8], 21.8%; with Mycosphaerella arachidis [9] it was 39.5%; in the experiment on Alternaria solani [10], 75%. Further, the inhibition of growth at 50 µg/mL worked out at 95% with Fusarium graminearum [1]; 95.9% in experiment [2]; 100% with Fusarium oxysporum [3]; 97.5% in the experiment on Alternaria solani [4]; 100% in the experiment on Mycosphaerella arachidis [5].
In the case of `CC(O)(Cn1cncn1)c1ccc(Oc2ccc(Cl)cc2)cc1Cl` (stereo not given), the inhibition of growth at 50 µg/mL in the experiment on Fusarium graminearum [1] was determined as 100%; in experiment [2], 100%; in the experiment with Fusarium oxysporum [3], 85.3%; in the experiment with Alternaria solani [4], 78.2%; in the experiment on Mycosphaerella arachidis [5], 100%.
Consider `CC(O)(Cn1cncn1)c1ccc(Oc2ccc(F)cc2)cc1Cl` (stereo not given), for which the inhibition of growth at 1 µg/mL in the experiment on Fusarium oxysporum [6] stood at 17.9%; in experiment [7], 48.7%; with Fusarium graminearum [8] it was 0%; in the experiment on Mycosphaerella arachidis [9] it was 37.5%; in the experiment on Alternaria solani [10], 20%. Moreover, the inhibition of growth at 50 µg/mL came to 98% in the experiment on Fusarium graminearum [1]; 100% in experiment [2]; 99% in the experiment on Fusarium oxysporum [3]; 100% in the experiment on Alternaria solani [4]; 99% with Mycosphaerella arachidis [5].
Regarding `OC(/C=C/c1ccccc1)(Cn1cncn1)c1ccc(Oc2ccc(Cl)cc2)cc1Cl` (stereo not given), the inhibition of growth at 50 µg/mL amounted to 64.3% in the experiment with Fusarium graminearum [1]; 67.9% in experiment [2]; 68.7% in the experiment with Fusarium oxysporum [3]; 81.2% in the experiment on Alternaria solani [4]; 100% in the experiment on Mycosphaerella arachidis [5].
Consider `OC(/C=C/c1ccc(Cl)cc1)(Cn1cncn1)c1ccc(Oc2ccc(Cl)cc2)cc1Cl` (stereo not given), for which the inhibition of growth at 50 µg/mL in the experiment on Fusarium graminearum [1] amounted to 77.2%; in experiment [2] it was 64.1%; in the experiment with Fusarium oxysporum [3], 57.1%; with Alternaria solani [4], 76.8%; in the experiment with Mycosphaerella arachidis [5], 95%.
For `OC(/C=C/c1ccc(Cl)cc1Cl)(Cn1cncn1)c1ccc(Oc2ccc(Cl)cc2)cc1Cl` (stereo not given) the same measures were 37.2%, 58.7%, 50.9%, 54.4% and 97.8%.
Turning to `OC(/C=C/c1c(Cl)cccc1Cl)(Cn1cncn1)c1ccc(Oc2ccc(Cl)cc2)cc1Cl` (stereo not given), the inhibition of growth at 50 µg/mL came to 50.3% with Fusarium graminearum [1]; 79.3% in [2]; 51.8% with Fusarium oxysporum [3]; 60.7% in the experiment on Alternaria solani [4]; 92.4% in the experiment with Mycosphaerella arachidis [5].
Consider `Cc1ccc(/C=C/C(O)(Cn2cncn2)c2ccc(Oc3ccc(Cl)cc3)cc2Cl)cc1` (stereo not given), for which the inhibition of growth at 50 µg/mL in the experiment on Fusarium graminearum [1] came out at 51.8%; in experiment [2] it was 59.3%; in the experiment with Fusarium oxysporum [3] it was 60.2%; in the experiment with Alternaria solani [4], 63.2%; in the experiment on Mycosphaerella arachidis [5] it was 95%.
With `COc1ccc(/C=C/C(O)(Cn2cncn2)c2ccc(Oc3ccc(Cl)cc3)cc2Cl)cc1` (stereo not given), the inhibition of growth at 50 µg/mL with Fusarium graminearum [1] came out at 61.4%; in experiment [2], 64.5%; in the experiment on Fusarium oxysporum [3], 55.4%; with Alternaria solani [4], 55%; in the experiment with Mycosphaerella arachidis [5], 91.3%.
For `OC(/C=C/c1ccc(Cl)c(Cl)c1)(Cn1cncn1)c1ccc(Oc2ccc(Cl)cc2)cc1Cl` (stereo not given) the same measures were 53.6%, 64.6%, 57.1%, 66.7% and 100%.
For `OC(/C=C/c1ccccc1F)(Cn1cncn1)c1ccc(Oc2ccc(Cl)cc2)cc1Cl` (stereo not given), in that order: 61.4%, 52.1%, 65.9%, 55% and 99.3%.
For `OC(Cn1ccnc1)(Cn1cncn1)c1ccc(Oc2ccc(Cl)cc2)cc1Cl` (stereo not given), in that order: 71.4%, 99%, 95%, 99% and 100%.
As for `OC(CN1CCOCC1)(Cn1cncn1)c1ccc(Oc2ccc(Cl)cc2)cc1Cl` (stereo not given), the inhibition of growth at 50 µg/mL in the experiment with Fusarium graminearum [1] came out at 78.3%; in experiment [2], 65.2%; in the experiment with Fusarium oxysporum [3], 34.4%; in the experiment with Alternaria solani [4] it was 55.2%; with Mycosphaerella arachidis [5] it was 60%.
With `OC(Cn1cncn1)(Cn1nnc2ccccc21)c1ccc(Oc2ccc(Cl)cc2)cc1Cl` (stereo not given), the inhibition of growth at 50 µg/mL is 45.4% in the experiment on Fusarium graminearum [1]; 55.6% in [2]; 48.7% with Fusarium oxysporum [3]; 53.3% with Alternaria solani [4]; 62.7% with Mycosphaerella arachidis [5].
For `OCC(O)(Cn1cncn1)c1ccc(Oc2ccc(Cl)cc2)cc1Cl` (stereo not given) the same measures were 99%, 99%, 77.1%, 99% and 100%.

The values above are taken from ChEMBL document CHEMBL3045156, “Synthesis and fungicidal evaluation of 2-arylphenyl ether-3-(1H-1,2,4-triazol-1-yl)propan-2-ol derivatives” (2009).
